Laboratory results taken from patent publication US12090221B2, “Composition for preventing gray hair, promoting black hair and preventing, improving or treating vitiligo or hypochromatism comprising fructose 1,6-bisphosphate or salt, solvate, stereoisomer or hydrate thereof as active ingredient” (AMOREPACIFIC CORPORATION, priority 2021, dated 2024).

Columns and labels:
[1] = system: Normal human epidermal melanocytes; assay: Melanin synthesis-promoting effect in normal human melanocytes (absorbance at 475 nm of NaOH lysate); format: cell-based; conditions: cultured for 6 days, relative to untreated group as 100%
Procedure: Normal human epidermal melanocytes (GIBCO™, ThermoFisher Scientific, USA) were treated with fructose 1,6-bisphosphate at 0 (untreated group), 0.1, 1, 10 or 100 ppm and then cultured for 6 days. After the culturing, the cells were lysed with 1 N NaOH and absorbance was measured at 475 nm. Relative melanin production was represented with respective to the absorbance of the untreated group not treated with fructose 1,6-bisphosphate as 100%. A higher absorbance means a higher melanin content.

[2] = system: human hair follicles; assay: Effect of preventing gray hair and promoting black hair in cultured human hair follicles damaged with hydrogen peroxide (Fontana-Masson staining of melanin); format: cell-based; conditions: 100 ppm together with 1000 μM hydrogen peroxide, cultured for 3 days, FIG. 3
Procedure: Occipital scalp tissue was obtained from a person who received hair follicle transplantation surgery due to hair loss. Hair follicle samples were isolated from the obtained occipital scalp tissue using a microscope. A total of 15 hair follicle samples were prepared for 3 groups, with 5 samples per each group. The hair follicle samples were cultured on a 24-well plate (Nunc, Wiesbaden, Germany) containing 500 μL of a culture medium, with 5 samples per well. As the culture medium, William's E medium (GIBCO, NY, USA) containing 2 mM L-glutamine (PAA, Coelbe, Germany), 10 μg/mL insulin, 10 ng/mL hydrocortisone (Sigma, St Louis, Mo.), 0.1% Fungizone (GIBCO, NY, USA), 10 μg/mL streptomycin and 100 U/mL penicillin (GIBCO, NY, USA) was used. After simultaneously treating with hydrogen peroxide and a fructose 1,6-bisphosphate trisodium salt (FBP-Na3H) at 1000 μM and 100 ppm, respectively, the samples were cultured for 3 days. For comparison, control groups were treated with 1000 μM hydrogen peroxide (H2O2) only or with neither hydrogen peroxide nor the fructose 1,6-bisphosphate trisodium salt. After the treatment, the sample was fixed with formalin, washed with water, dehydrated with alcohol and xylene, and then embedded in paraffin according to a common tissue-processing procedure. […]

| SMILES | Relative melanin production (effect of promoting melanin production in melanocytes) ([1]; 0.1, 1, 10 or 100 ppm, FIG. 1 and FIG. 2) | Relative melanin production (effect of promoting melanin production in melanocytes) ([1]; 100 ppm treatment group) | Melanin production in human hair follicles (Fontana-Masson staining) [2] | Prevention of decreased melanin production in hair bulbs due to hydrogen peroxide damage (Fontana-Masson staining) ([2]; compared with H2O2 only) |
| --- | --- | --- | --- | --- |
| O=C(COP(=O)(O)O)[C@@H](O)[C@H](O)[C@H](O)COP(=O)(O)O [fructose 1,6-bisphosphate] | exhibits the effect of promoting melanin production in melanocytes | significantly high | – | – |
| O=C(COP(=O)([O-])[O-])[C@@H](O)[C@H](O)[C@H](O)COP(=O)([O-])O.[Na+].[Na+].[Na+] [fructose 1,6-bisphosphate trisodium salt] | – | – | promoting melanin production in human hair follicles | preventing decreased melanin production in hair bulbs due to damage caused by hydrogen peroxide |
